# Data reported in publication PMC8102418 (iScience, 2021).
# No end group written: not given here.
# Assays:
# SRPK2 = details: ref Batson et al., 2017; cited from earlier work
# CLK1 = details: ref Batson et al., 2017; cited from earlier work
# [1] = system: interaction between SRPK1 and SRSF1; test: In vitro GST pull-down of GST-SRSF1 with SRPK1ΔNS3; assay type: binding; details: 500 nM GST-SRSF1, 500 nM SRPK1, 4°C 3 h, SDS-PAGE, Coomassie Blue
# SRPK1 = SRPK1 (Homo sapiens, UniProt Q96SB4); test: In vitro radioactive kinase assay, SRSF1 phosphorylation by SRPK1; assay type: biochemical; details: 50 μM [32P]ATP, different inhibitor concentrations
# SRPK1 (SRPK1ΔNS3) = SRPK1 (SRPK1ΔNS3) (Homo sapiens, UniProt Q96SB4); test: Isothermal titration calorimetry; assay type: binding; details: SD
molecule,measurement,setting,value
O=C(Nc1cc(C(F)(F)F)ccc1N1CCN(Cc2ccccn2)CC1)c1ccc(-c2ccncc2)o1 [SPHINX31],affinity for SRPK2 lower than that of SRPK1,SRPK2,50 fold
same,affinity for CLK1 lower than that of SRPK1,CLK1,50 fold
GRKKRRQRRRPQSWQDLKDH [control peptide],inhibition of the binding of GST-SRSF1 and SRPK1ΔNS3 (GST pull-down),[1],did not inhibit
same,inhibition of SRSF1 phosphorylation by SRPK1 (in words),SRPK1,did not inhibit
"RERARTR [7-mer, R-E-R-A-R-T-R]",Kd,SRPK1 (SRPK1ΔNS3),112 ± 9.9 µM
